Test system: BxPC-3 human pancreatic cancer cells
Test: cell vitality FACS analysis (region R-1, FSC/SSC), BxPC-3 cells
Type: cell-based
Details: BxPC-3, Protocol A, about 24 hours, FIG. 8
Description: To transfer adherent cells (A375 and BxPC-3 cells) after culture, cells are washed twice with PBS. To detach the cells, the enzyme biotase is used according to the manufacturer's instructions. For this purpose, after washing with PBS, the cells are mixed with biotase (5 ml of biotase solution per 75 cm^2 surface of the cell culture bottles) and incubated for 5 min at 37 degrees Celsius, and the biotase is separated by centrifugation. Cells cultivated in suspension (MEC-1 and lymphocytes) were transferred by dilution. The cells are suspended in culture medium and counted, each time 1.5×10^5 cells/cm^2 are seeded in 48-well plates and cultured for between 1.5 and 24 hours at 37 degrees Celsius, 5% CO2. Peptides are pre-diluted from stock solution with culture medium and 200 μl of peptide solution added so that final concentrations of 30 to 500 μM peptide are present in at most 1% (v/v) DMSO. As control solutions, culture medium without peptide (DMSO-containing) in culture medium or etoposide solution is added. After incubating the cells for several hours, the cell supernatant is transferred to a FACS tube for each batch and, after washing the cells with PBS, the wash solution is added. Then the cells are incubated with 200 μl of biotase solution for 10 min, 37° C., the cells with the biotase are also transferred to the FACS tube and the cells are collected by centrifugation for 5 min. The cell pellet is suspended in 500 μl of serum-free culture medium, then 1.5 ml of cold 80% ethanol (ethanol/PBS-80/20, v/v, stored at −20° C.) is added, the FACS tubes sealed and stored at −20 degrees Celsius for 15 to 18 h. Thereafter, the cells are centrifuged for 5 minutes at 120 g, suspended after removal of the supernatant in 2 ml PBS and incubated at 37 degrees Celsius for 30 minutes. After re-centrifugation, the cells are suspended in 0.5 ml DAPI solution and incubated for 15 min at 20 degrees Celsius in the dark. Thereafter, the cells are stored dark for a maximum of four hours in an ice bath, followed by the FACS analysis. […]
For suspension cells (MEC-1 and lymphocytes/PBMC) and for adherent cells analyzed according to Protocol A, FACS analysis to determine subG1 cell cycle and vital cell fractions was done on a Becton Dickinson LSR Fortessa flow cytometer. The analysis by FACS including subG1 and vital cell analysis according to protocol B was performed with a Cytomics FC 500 MPL flow cytometer from Beckman Coulter.
Changes of the cell form during cell death by apoptosis are documented in the literature (Lizard et al. 1995; Taga et al. 2000; Vermes et al., 2000). The protocols for cell cultivation, treatment and preparation of the cells before flow cytometry is detailed in separate examples. Cell suspensions of cell lines A375, BxPC-3, MEC-1 or of primary lymphocytes (see separate example of lymphocyte preparation) are analyzed by flow cytometry. The data are further analyzed by using the program “Flowing Software 2”. The data of light scattering are drawn in a two-dimensional FSC/SSC plot. Since the position in the FSC/SSC plot of apoptotic cells changes relative to non-apoptotic cells (Vermes et al., 2000), a region (R-1) is drawn representing mainly non-apoptotic cells and excluding cells with both low FSC and low SSC values and excluding cells with high values of FSC and/or SSC (FIG. 1). The regions are individually selected for each cell type (A375, BxPC-3, MEC-1 and primary lymphocytes). The percentage of untreated non-apoptotic cells in the region R-1 relative to total cells is set to 100%, representing 100% vital cells. The fraction (%) of cells in R-1 relative to the total number of cells in case of cell treatment by certain peptides or by cytotoxic drugs results in cell vitality, below 100%, thereby indicating a loss of cell vitality by the treatment. […]

[1] = all concentrations (50, 100, 200 μM)

Row | Substance | decrease of cell vitality, comparison in words (50 μM) | efficiency (decrease of cell vitality) in view of Peptide SEQ C1 (50 μM) | decrease of cell vitality, efficiency in words (100 μM) | decrease of cell vitality, efficiency in words (200 μM) | efficiency (decrease of cell vitality) in view of Peptide SEQ C1 (100 and 200 μM) | decrease of cell vitality, comparison in words [1]
1 | k-s-q-t-v-q-k-w-m-v-v-y-f-r-k [SEQID No 36] | clear improvement over peptides SEQID NO 27, SEQID NO 37 and SEQID NO 29 | at least fourfold | very high efficiency | astonishing high efficiency | at least sevenfold | significantly greater decrease than the control peptide (C1)
2 | k-s-q-t-v-k-k-w-m-v-v-y-f-r-k [SEQID No 29] |  |  | very high efficiency | astonishing high efficiency |  | significantly greater decrease than the control peptide (C1)
3 | s-q-t-v-q-k-w-m-v-v-y-f-r-k [SEQID No 37] |  |  |  | astonishing high efficiency |  | significantly greater decrease than the control peptide (C1)

— patent publication US20220160812A1, “A PHARMACEUTICALLY ACTIVE SUBSTANCE” (Cytopharma GmbH, priority 2019, published 2022)
